Experimental data as given in publication PMC7306898, “Concentration-Dependent Activity of Hydromethylthionine on Clinical Decline and Brain Atrophy in a Randomized Controlled Trial in Behavioral Variant Frontotemporal Dementia” (Journal of Alzheimer's Disease, 2020).

Assays:
CYP2B6 = tested on: CYP2B6; set-up: method as in Investigator's Brochure; settings: ref Investigator's Brochure; cited from earlier work
AD patients = tested on: AD patients; set-up: method as in PMID 31658058; settings: cited from earlier work
[1] = tested on: P-glycoprotein (P-gp) transporter; set-up: method as in Investigator's Brochure; settings: ref Investigator's Brochure; cited from earlier work
bvFTD patients [2] = assay: Whole brain volume (WBV) change by MRI (Boundary Shift Integral); format: in vivo, human
Description: (§1) The two doses were provided in identical blister packages as visually identical oral tablets to be taken for up to 52 weeks. The primary outcome was the Addenbrookes Cognitive Examination – Revised (ACE-R). The Functional Activities Questionnaire (FAQ) and reduction in progression of whole brain atrophy were alternative co-primary outcomes. Other outcomes included: Modified Alzheimer’s Disease Cooperative Study – Clinical Global Impression of Change (Modified-CGIC) determined by a third independent rater; Frontotemporal Dementia Rating Scale (FRS); MMSE (from MMSE items incorporated into ACE-R); Addenbrookes Cognitive Examination – III (a revised version of ACE-R which excludes MMSE items subject to copyright restrictions); change in brain volume measured by MRI in frontal and temporal lobes (FTV) and lateral ventricles (LVV); and the effect of hydromethylthionine in patients with known genetic mutations associated with bvFTD. Blood was collected prospectively for the purpose of population PK analyses.
MRI scans were obtained at screening and weeks 16, 32, and 52. The acquisition protocol was standardized across sites and all data were centrally collected, quality-controlled, and analyzed by the imaging core laboratory (Bioclinica). […] For data passing quality-control, baseline volume was automatically assessed using FreeSurfer v5.3, while volume changes were assessed using Boundary Shift Integral (whole brain, lateral ventricles) and Tensor-Based Morphometry (frontal and temporal lobes). […]
The primary analyses were specified as a mixed model, repeated-measures analysis with an unstructured covariance matrix and no imputation for missing data. The model included visit (three levels corresponding to assessments at weeks 16, 32, and 52), treatment group (two levels, 4 mg or 100 mg twice a day), a visit by treatment group interaction term, use of AD-labelled medications (two levels, using or not using), geographic region (three levels: North America, Asia/Australia, Europe), and baseline value of the variable analyzed. […]

[3] = set-up: method as in PMID 31658058; settings: cited from earlier work
bvFTD patients [4] = assay: Addenbrookes Cognitive Examination – Revised (ACE-R), 52-week Phase III trial TRx-237-007; format: in vivo, human
Description: The study was designed as a 52-week Phase III, randomized, controlled, double-blind, parallel-group trial conducted between May 2013 and February 2016 at 70 sites in Canada, United States, Australia, Asia, and Europe. Eligible patients had to be younger than 80 years of age with a diagnosis of bvFTD according to criteria revised by the International bvFTD Criteria Consortium [[1, 50]], with Mini-Mental Status Examination (MMSE) score greater than or equal to 20 at screening. In order to limit inclusion of bvFTD phenocopy cases, there was an additional requirement that patients had to meet the criterion of having definite brain atrophy in frontal and/or temporal lobes scoring 2 or more on a scale previously developed by Kipps et al.. Concomitant use of acetylcholinesterase inhibitors (AChEIs) or memantine (or both) was permitted provided this was at a stable dose for at least 18 weeks before randomization to minimize any potential early symptomatic effects of these treatments. Concomitant use of antidepressant, antipsychotic (except clozapine or olanzapine), and sedative medications was also permitted at stable doses where clinically feasible. Each patient had one or more study partners participate with them in the trial as informants. […] A detailed list of inclusion and exclusion criteria is in the protocol provided in the Supplementary Material. […]
as §1, with “The primary outcome was the Addenbrookes Cognitive Examination – Revised (ACE-R). The Functional Activities Questionnaire (FAQ) and reduction in progression of whole brain atrophy were alternative co-primary outcomes.” left out, “Blood was collected prospectively for the purpose of population PK analyses.” left out

[5] = 8 mg/day, plasma levels above vs below […] threshold

## CN(C)c1ccc2c(c1)Sc1cc(N(C)C)ccc1N2 [hydromethylthionine, leuco-methylthioninium bis(hydromethanesulphonate)]
CYP2B6
  induction of CYP2B6: w eak in ducer
AD patients; 8 mg/day dose, AD ref 49
  steady state plasma levels with steep concentration-response relationships on cognitive and MRI outcomes in AD: 0.3 to 0.8 ng/mL
AD patients
  estimated brain concentration required for pharmacological activity: 0.02–0.06 μM
  plasma concentration threshold (Cmax,ss) identified in mild/moderate AD: 0.373 ng/mL
  predicted optimal dose for treatment of AD: about 16 mg/day
AD patients; combined AD and bvFTD populations ref 49
  dose sufficient to ensure that all patients have plasma levels above the threshold required for pharmacological activity: 16 mg/day
AD patients; doses 150–250 mg/day, AD ref 49
  plasma concentrations not associated with any additional benefit in AD: 4 to 21 ng/mL
[1]
  effect of coadministration on digoxin (P-gp substrate): decreased concentrations
  induction of P-glycoprotein (P-gp) transporter: w eak in ducer
bvFTD patients [2]; 8 mg/day, modeled change from baseline at 52 weeks
  WBV: Decline±SEM for LMTM 8 mg/day group: –21.64±1.56 cm^3
bvFTD patients [2]; [5]
  reduction in whole brain atrophy: 42%
bvFTD patients [2]; 200 mg/day vs 8 mg/day, 52 weeks
  WBV: Difference±SEM from LMTM 8 mg/day for 200 mg/day: –1.35±2.32 cm^3
[3]
  brain:plasma ratio compared to MTC: ≥ 60 fold
bvFTD patients [4]; 8 mg/day (n = 110), modeled change from baseline at 52 weeks, MITT
  ACE-R: Decline±SEM for LMTM 8 mg/day group: –9.98±1.39
bvFTD patients [4]; [5]
  reduction in decline on the ACE-R scale: 45%
bvFTD patients [4]; 200 mg/day (n = 104) vs 8 mg/day, 52 weeks, MITT
  ACE-R: Difference±SEM from LMTM 8 mg/day for 200 mg/day: –0.49±2.10
